Patent US6953786B2, “Compositions comprising plant-derived polyphenolic compounds and inhibitors of reactive oxygen species and methods of using thereof” (The Regents of the University of California, priority 2002, dated 2005)

Key:
Mia PACA-2 cells [1] = assay: Oligonucleosomal DNA fragmentation by cell death ELISA; assay type: cell-based, human; conditions: Mia PACA-2, 72 hours, with serum; DPI 15 μM, Tiron 10 mM, genistein 100 μM, trans-resveratrol 100 or 50 μM
Method: Mia PACA-2 cells were cultured for 72 hours in the presence of serum with or without 15 μM DPI, 10 mM Tiron, 100 μM genistein, 100 μM or 50 μM trans-resveratrol, or a combination thereof. Oligonucleosomal DNA fragmentation was measured in cell lysates by cell death ELISA.
Annexin staining was conducted as described above. Cells were collected, washed with PBS, and centrifuged for 10 min at 200×g. DNA fragmentation was determined using Cell Death Detection ELISA Plus kit (Roche Molecular Biochemicals).
To determine the role of caspases in the effects of combinations of agents on apoptosis, the effects of caspase-3 activity (DEVDase activity) as well as the effect of the broad spectrum caspase inhibitor, Z-VAD, on apoptosis was measured. Specifically, Mia PACA-2 cells were cultured for 72 hours in the presence of serum with or without 100 μM Z-VAD, 15 μM DPI, 100 μM trans-resveratrol, 100 μM genistein, a combination of trans-resveratrol and DPI, and a combination of genistein and DPI. DEVDase activity was measured in whole cell lysates with a fluorimetric assay. DNA fragmentation was measured in cell lysates by cell death ELISA.
In particular, Mia PACA-2 cells were cultured for 72 hours in the presence of serum with or without 50 μM trans-resveratrol (RS), 15 μM DPI, a combination of DPI and trans-resveratrol (RS+DPI), 10 μM MG-132 alone and in combination with RS, DPI, and RS+DPI. Internucleosomal DNA fragmentation was measured in cell lysates by cell death ELISA.

Mia PACA-2 cells [2] = assay: Intracellular ROS (H2O2) by flow cytometry of DCF-labeled cells; assay type: cell-based, human; conditions: Mia PACA-2, 72 hours, serum or IGF-1; trans-resveratrol 100 μM, genistein 100 μM, DPI 15 μM, tiron 10 mM
Method: To determine the effect of serum in cancer cells, the following assay was conducted. Mia PACA-2 pancreatic cancer cells were cultured for 72 hours in the absence and presence of serum (15% FBS) or 100 ng/ml insulin growth factor-1 (IGF-1). Dichloroflyorescein diocetate (DCF-DA) was used to label the cells. Intracellular H2O2 was measured by flow cytometry of DCF-labeled cells. Intracellular ROS was measured using oxidation-sensitive cell-permeable fluorescent probe, dichlorofluorescein diacetate (DCF-DA) to measure H2O2. See Royall J A, and Ischiropoulos H. (1993) Arch. Biochem. Biophys. 302:348-355. To measure ROS, cells were collected after incubation, washed with PBS, and incubated for 15 minutes with […] DCF-DA. Samples were analyzed by flow cytometry. The amount of DCF-DA fluorescence correlated with the amount of ROS in the cells To determine the effects of serum, IGF-1, polyphenols and inhibitors of ROS on ROS production in cancer cells, the following assay was conducted. Mia PACA-2 cells were cultured for 72 hours in the presence of serum or IGF-1 with or without antioxidants, intracellular superoxide scavenger tiron (10 mM) or NADPH oxidase inhibitor, diphenylene iodonium (DPI, 15 μM) and trans-resveratrol (100 μM), genistein (100 μM), or a combination of polyphenolic compounds and antioxidants. Intracellular H2O2 was measured by flow cytometry of DCF-labeled cells. Mia PACA-2 cells and BSp73AS cells were cultured in Dulbecco's Modified Eagle's Medium supplemented with 10% heat inactivated FBS, penicillin G (100 U/ml) and streptomycin ([…]) in a humidified atmosphere comprising 5% (v/v) CO2. When the cells were 90% confluent they were detached, washed with alternating centrifugation and resuspension, plated and incubated in the same media with or without FBS or IGF-1 and with or without a given polyphenolic compound and with or without a given ROS inhibitor.

BSp73AS cells = assay: Oligonucleosomal DNA fragmentation (agarose gel); assay type: cell-based, rat; conditions: 6 hours, 100 μM, no serum
Method: To confirm the apoptosis in vivo results, the effects of quercetin, rutin, and trans-resveratrol in other apoptosis assays in Mia PACA-2 cells and BSp73AS cells in culture were conducted. BSp73AS cells are derived from a rat pancreatic carcinoma and both Mia PACA-2 and BSp73AS cells have mutated p53 and express K-ras. Human pancreatic carcinoma cell line Mia PACA-2 and rat pancreatic carcinoma BSp73AS were cultured in Dulbecco's Modified Eagle's Medium supplemented with 10% heat inactivated FBS, penicillin G (100 U/ml) and streptomycin ([…]) in a humidified atmosphere comprising 5% (v/v) CO2. When cells were 90% confluent they were detached, washed with alternating centrifugation and resuspension, plated and incubated in the same media without FBS and with the indicated concentrations of polyphenolic compounds or vehicle for up to 96 hours. Oligonucleotide DNA fragmentation, annexin staining, and PARP proteolysis assays were conducted as follows: BSp73AS pancreatic cancer cells were cultured for 6 hours in the presence or absence of 100 μM of rutin, quercetin, or trans-resveratrol. DNA was isolated as described by Gukovskaya AS, et al. (1997) Clin Invest 100: 1853-1862, which is herein incorporated by reference. […]

O=c1c(-c2ccc(O)cc2)coc2cc(O)cc(O)c12 [genistein]
oligonucleosomal DNA fragmentation (apoptosis) (Mia PACA-2 cells [1]): either no or small effects | ROS production (intracellular H2O2, DCF fluorescence) (Mia PACA-2 cells [2]): small increase in ROS production

Oc1ccc(/C=C/c2cc(O)cc(O)c2)cc1 [trans-resveratrol]
oligonucleosomal DNA fragmentation (BSp73AS cells): caused an increase | oligonucleosomal DNA fragmentation (apoptosis) (Mia PACA-2 cells [1]): either no or small effects | ROS production (intracellular H2O2, DCF fluorescence) (Mia PACA-2 cells [2]): small increase in ROS production

O=c1c(O)c(-c2ccc(O)c(O)c2)oc2cc(O)cc(O)c12 [quercetin]
oligonucleosomal DNA fragmentation (BSp73AS cells): caused an increase
